Tests used:
Nox2 = target: T1, Nox2 (Homo sapiens, UniProt P04839); test: H2O2 production, homovanillic acid assay, Cos-phox cells; assay type: cell-based; details: phorbol 12-myristate 13-acetate stimulated, 1 hour 37° C.
T1 construct: expressed in transfected cells; host or cells: COS-phox cells
T1 sequence (P04839 2-570 limits assumed): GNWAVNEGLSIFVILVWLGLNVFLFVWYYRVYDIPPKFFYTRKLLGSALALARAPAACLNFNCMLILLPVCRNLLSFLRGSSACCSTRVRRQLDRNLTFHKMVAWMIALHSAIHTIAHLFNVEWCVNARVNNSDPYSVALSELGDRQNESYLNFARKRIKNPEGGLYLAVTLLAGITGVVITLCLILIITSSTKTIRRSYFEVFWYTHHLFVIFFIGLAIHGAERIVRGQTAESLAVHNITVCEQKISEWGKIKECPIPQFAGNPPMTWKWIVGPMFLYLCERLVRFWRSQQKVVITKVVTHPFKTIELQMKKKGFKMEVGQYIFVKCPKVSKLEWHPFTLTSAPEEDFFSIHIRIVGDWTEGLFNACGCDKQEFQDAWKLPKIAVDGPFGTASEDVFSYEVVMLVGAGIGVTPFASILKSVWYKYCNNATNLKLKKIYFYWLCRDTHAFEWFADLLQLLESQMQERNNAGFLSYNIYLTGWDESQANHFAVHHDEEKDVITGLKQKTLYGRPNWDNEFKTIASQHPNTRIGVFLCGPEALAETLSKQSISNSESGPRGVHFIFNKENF
T1 sequence (P13498 2-195 partner limits assumed): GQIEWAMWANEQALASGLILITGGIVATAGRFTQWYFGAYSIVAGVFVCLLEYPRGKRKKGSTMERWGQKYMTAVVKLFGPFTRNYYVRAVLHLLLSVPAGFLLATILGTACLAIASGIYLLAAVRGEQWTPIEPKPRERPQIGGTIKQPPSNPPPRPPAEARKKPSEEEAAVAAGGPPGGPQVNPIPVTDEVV
Protocol: After 1 hour incubation at 37° C., the reaction was stopped and H2O2 production was measured using the homovanillic acid assay. The ability of these drugs to inhibit production of H2O2 is shown as a percentage relative to the untreated control (100%). […] Optimal Nox2 activity requires phorbol 12-myristate 13-acetate stimulation whereas Nox4 activity is constitutive.
H2O2 release was measured using the homovanillic acid assay as described previously (Martyn, 2006). Briefly, 1.5-1.75×10^5 cells/well of a 12-well plate were seeded. The following day, cells were washed once with Hank's balanced salt solution and then preincubated for 15 minutes with either gentian violet (10-20 nM) or brilliant green (0.5-1.0 μM) in 1 ml of media. The cells were then washed once with Hank's balanced salt solution. Gentian violet or brilliant green was added at the same concentrations as in pretreatment to 0.5 ml of homovanillic acid assay solution (100 μM homovanillic acid assay, 4 U/ml horseradish peroxidase in Hank's balanced salt solution with Ca^2+ and Mg^2+) and incubated with the cells for 1 hour at 37° C. Cos-phox cells were additionally stimulated with 0.4 μg/ml phorbol 12-myristate 13-acetate. […] Fluorescence was read on a BioTek Synergy HT (BioTek Instruments Inc., Winooski, Vermont, […].) with an excitation of 320 nm and emission of 440 nm.

[1] = test system: P. falciparum D6 (Chloroquine Sensitive); test: Malaria model, chloroquine sensitive P. falciparum; assay type: cell-based; details: Plasmodium falciparum, D6; read-out: IC50 (nM) vs P. falciparum D6 (Chloroquine Sensitive)
Protocol: The compounds were tested in a malaria model using both chloroquine sensitive and multidrug resistant P. falciparum. The malaria model was the same as published in JAC Advance Access published online on Jul. 30, 2008, Journal of Antimicrobial Chemotherapy, doi:10.1093/jac/dkn315, the contents of which are hereby incorporated by reference, and the data is summarized in the table below.
Briefly, the assay involves exposing both chloroquine sensitive and multidrug resistant P. falciparum to the compounds. After one hour of exposure to the highest concentration of the compound, followed by removal of the compound, the growth of all stages of P. falciparum was observed. The reduction in the growth stages was then compared with untreated control parasites. […] The presence of strong inhibition (defined herein as 10% growth) of all parasite stages was evaluated when the parasites were exposed to various concentrations of various compounds.

[2] = ESR spectrum with superoxide dismutase; details: room temperature ESR, conditions as in Li et al.
Protocol: Li used ESR to confirm the production of NADPH-dependent.O2—by isolated endosomes (Li et al., Molecular and Cellular Biology, January 2006, p. 140-154, 26(1):140-154 (2006)). ESR assays were conducted at room temperature using a Bruker model EMX ESR spectrometer (Bruker). Vesicular fractions from each sample were mixed with the spin trap, 50 mM 5,5-dimethyl-1-pyrroline N-oxide (DMPO), in a total volume of 500 μl of PBS, pH 7.4. This solution contained iminodiacetic acid-chelating resin (10 ml/liter; Sigma-Aldrich). The reaction was initiated by adding NADPH to 100 μM and was immediately placed into the ESR spectrometer. DMPO-hydroxyl radical adduct formation was assayed for 10 min. Instrument settings were as follows: receiver gain, 1×10^6; modulation frequency, 100 kHz; microwave power, 40.14 mW; modulation amplitude, 1.0 G; and sweep rate, 1 G/s.

ang-2 mRNA = test: Quantitative reverse transcription-PCR for ang-2 in bEnd.3 cells; assay type: cell-based, murine; details: 6.5 hours
Protocol: bEnd.3 cells were seeded equally into six T-75 flasks and 24 hours later were treated with 0, 1, 5, 10, 15, and 20 μM concentrations of gentian violet (Sigma-Aldrich, no. G2039) in ethanol for 6.5 hours. RNA was extracted and purified using TRI reagent (Sigma-Aldrich, T9424) and measured using spectrophotometer (Perkin-Elmer UV/VIS, Wellesley, Mass.). RNA (1 μg) was used for DNase Amplification (Invitrogen, no. 18068-015, Carlsbad, Calif.) followed by first-strand synthesis for reverse transcription-PCR (Invitrogen SuperScript, no. 12371-019). 96-well Optical Reaction Plate (ABI PRISM, no. 128, Applied Biosystems, Foster City, Calif.) was used for the reverse transcription-PCR reaction. A measure of 2.5 μl of template, which had been diluted 1:10 in crosslinked water, was used in each well and the experiment was performed in triplicate. Ang pt2 (Applied Biosystems, Taqman Gene Expression Assay, Mm00545822_ml) and 18S (Applied Biosystems Taqman Gene Expression Assay, Hs99999901_sl) primers were used along with crosslinked molecular grade water (Cellgro, Mediatech, Inc., Herndon, Va.) and master mix (Applied Biosystems TaqMan Fast Universal PCR Master Mix (2^x)). The reaction was run on the 7900 Applied Biosystems Reader for Absolute Quantification for 96-well plates. C values were analyzed by ΔΔCt method, and the standard error of the mean was calculated (FIG. 3b). The same protocol was used for treatment with brilliant green (Sigma, no. B6756), except that the concentrations used were 0, 0.1, 0.25, 0.5, and 0.75 μM (FIG. 3a).

For `CN(C)c1ccc(C(=C2C=CC(=[N+](C)C)C=C2)c2ccc(N(C)C)cc2)cc1` [Gentian Violet (GV), hexamethyl pararosaniline chloride], the “inhibition of Nox2 activity (H2O2 production)” value (Nox2) was “inhibited”, the IC50 [1] was 12.1 nM and the “radical formation with superoxide (ESR)” value [2] was “appear to form a radical by reacting with superoxide”. For the same molecule, the “ang2 expression compared to control” value (ang-2 mRNA; 1 and 5 μM) was “increased” and the “inhibition of ang-2 mRNA” value (ang-2 mRNA; higher concentrations (above 5 μM, up to 20 μM)) was 70-90%.

From US9358226B2, “Triarylmethane analogs and their use in treating cancers” (Emory University, priority 2007, dated 2016)
